{
  "source": "paper PMC3145970",
  "about": "“Specific CLK Inhibitors from a Novel Chemotype for Regulation of Alternative Splicing” (Chemistry & Biology, 2011)",
  "key": {"CLK1": {"molecular_target": "T1, CLK1 (Homo sapiens, UniProt P49759)", "T1 construct": "the kinase domains of human CLK1 (residues: 148–484 (C terminus)); hexahistidine tag (TEV-cleavable) (cleaved yes); made in house; host or cells: E. coli BL21(DE3)", "T1 sequence (P49759 148-484)": "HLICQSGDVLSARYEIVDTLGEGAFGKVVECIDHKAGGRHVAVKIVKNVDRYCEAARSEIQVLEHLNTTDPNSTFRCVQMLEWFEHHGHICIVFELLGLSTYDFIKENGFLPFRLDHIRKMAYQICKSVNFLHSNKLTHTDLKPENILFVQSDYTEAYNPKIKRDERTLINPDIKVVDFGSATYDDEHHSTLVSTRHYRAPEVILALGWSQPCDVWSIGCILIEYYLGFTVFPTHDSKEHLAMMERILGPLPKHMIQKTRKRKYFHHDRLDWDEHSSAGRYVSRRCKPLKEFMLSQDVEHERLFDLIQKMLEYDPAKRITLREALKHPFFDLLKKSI", "experiment": "Coupled-enzyme (PK/LDH) kinase inhibition assay", "assay_type": "biochemical", "conditions": "0.1 mM ATP, 25°C; average from three independent experiments", "experimental": "The consensus peptide for CLK1 ([…]) and the DYRK1A substrate peptide ([…]-amide) were used as substrates at a concentration of 100 μM. Inhibitors, dissolved in DMSO, were added at the beginning of the preincubation period resulting in a final DMSO concentration of 2% in the assay. Kinetic analysis was performed by nonlinear regression fitting using GraphPad Prism 5 and least-squares fits to sigmoidal dose response curves with variable slope equation: Y=min+max−min/1+10^(logEC50−x)Hillslope, where max and min corresponds to maximal and minimal absorbance value."}, "[1]": {"system": "flTF and asHTF mRNA in HMEC-1 cells", "experiment": "TF isoform mRNA expression (RT-PCR)", "protocol": "For inhibition experiments, HMEC-1 endothelial cells were switched to EC basal medium (without fetal calf serum) for 1 hr. […] Analysis of the TF isoform mRNA expression was done 1 hr post stimulation with TNF-α and assessment of the phosphorylation state of SR proteins by western blotting was performed 2 min post induction of the cells. Positive controls were stimulated only with TNF-α, and negative controls were untreated."}, "[2]": {"system": "phosphorylated SR proteins in HMEC-1 cells", "experiment": "SR protein phosphorylation, western blotting", "assay_type": "cell-based, human", "experimental": "Western blot analysis of samples from cell lysates of inhibited, stimulated, and unstimulated HMEC-1 cells were performed as previously described ([Szotowski et al., 2005]). For detection of phosphorylated SR proteins, monoclonal antibody mAb1H4 (Invitrogen GmbH, Karlsruhe, Germany) was used."}},
  "note": "Entries after “also recorded” stand apart in the source; their conditions may differ.",
  "data": [
    {"smiles": "Nc1nc(Nc2ccc(S(N)(=O)=O)cc2)nn1C(=S)Nc1c(F)cccc1F", "note": "[K00546]", "values": [
      {"measurement": "IC50", "setting": "CLK1", "value": "8.9 ± 3", "unit": "nM"}
    ]},
    {"smiles": "CCN1/C(=C/C(C)=O)Sc2ccc(OC)cc21", "note": "[TG003]", "values": [
      {"measurement": "TNF-α-induced mRNA expression of flTF and asHTF", "setting": "[1]; HMEC-1, 10 μM inhibitor, 10 ng/ml TNF-α, 1 hr post stimulation", "value": "only slightly reduced mRNA expression in TNF-α-induced cells"},
      {"measurement": "Basal mRNA expression of flTF and asHTF", "setting": "[1]; resting HMEC-1, 10 μM inhibitor", "value": "reduced the basal expression of flTF and asHTF mRNA"},
      {"measurement": "TNF-α-induced phosphorylation of SR proteins", "setting": "[2]; HMEC-1, 10 μM inhibitor pretreatment, 10 ng/ml TNF-α, 2 min post stimulation", "value": "reduction of the TNF-α-induced increase in phosphorylation of all analyzed SR proteins"},
      {"measurement": "Phosphorylation state of SR proteins, nonstimulated cells", "setting": "[2]; HMEC-1, 10 μM inhibitor, basal conditions", "value": "only reduced the phosphorylation of SRp20; also recorded: no effect on the phosphorylation state of other SR proteins"},
      {"measurement": "Dose response of SRp75 and SRp55 phosphorylation", "setting": "[2]; TNF-α-stimulated HMEC-1, increasing inhibitor concentration", "value": "little effect on SRp75 and SRp55 phosphorylation"}
    ]}
  ]
}
